Source: US20220040304A1, “A COMPOSITION FOR CANCER CELL DEATH AND ITS USE” (Industry-University Cooperation Foundation Hanyang …, priority 2018, published 2022)

Legend:
MCF-7 cells [1] = test: Cell death by SYTOX Green or EthD-1 and DAPI fluorescence (light irradiation or Co-h); assay type: cell-based, human; conditions: MCF-7, protein 10 μM 24 hours; light 10 mW/cm^2 or Co-h 150 μM over time
Protocol: MCF-7 cells were seeded at 5×10^5 cells/mL in a 96-well plate (SPL Cell Culture Plate, 96 well (SPL, Cat #30096)), and cultured at 37° C. for 24 hours (overnight). After the culture for 24 hours, the cells were washed with FBS & Phenol red-free media (RPMI), and 100 μL of an FBS-free medium containing the purified protein (final concentration: 10 μM) was added, followed by reaction at 37° C. for 24 hours.
After the reaction for 24 hours, the cells were washed with FBS & Phenol red-free media (RPMI), and then 100 μL of FBS & Phenol red-free media (RPMI) was then added.
After the reaction, 8.1 μL of FMN (final concentration: 150 μM) was added. […]
SYTOX Green or EthD-1 and DAPI fluorescence images were observed using a confocal microscope according to a protein type treated to cells and i) light irradiation time or ii) reaction time with a Co-h substrate, and cell death was confirmed by measuring relative fluorescence intensity at an excitation wavelength of 504 nm and an emission wavelength of 523 nm of SYTOX Green, and an excitation wavelength of 525 nm and an emission wavelength of 590 nm of EthD-1 using a plate reader.
Whether or not Cell death was observed by fluorescence microscopy using SYTOX Green (dead cell-specific dye, green) or EthD-1 (dead cell-specific dye, red) and DAPI (live cell-specific dye, blue).

MCF-7 cells [2] = test: MTT colorimetric change and cell viability after reaction with Co-h substrate; assay type: cell-based, human; conditions: MCF-7, protein 10 μM 24 hours, Co-h 150 μM, without light irradiation
Protocol: MCF-7 cells were seeded at 5×10^5 cells/mL in a 96-well plate (SPL Cell Culture Plate, 96 well (SPL, Cat #30096)), and cultured at 37° C. for 24 hours (overnight).
After the culture for 24 hours, the cells were washed with FBS & Phenol red-free media (RPMI), and 100 μL of an FBS-free medium containing the purified protein (final concentration: 10 μM) was added, followed by reaction at 37° C. for 24 hours.
After the reaction for 24 hours, the cells were washed with FBS & Phenol red-free media (RPMI), and then 100 μL of FBS & Phenol red-free media (RPMI) containing a Co-h substrate solution (final concentration: 150 μM) was added. The cells were washed with FBS & Phenol red-free media (RPMI), and 100 μL of fresh FBS & Phenol red-free media (RPMI) were then added.
10 μL of 3-(4,5-dimethylthiazol-2-yl)-2,5-diphenyltetrazolium bromide (MTT) (final concentration: 1×) was added, followed by reaction at 37° C. for 4 hours. After 100 μL of a supernatant was removed, 100 μL of DMSO was added, followed by reaction for 10 minutes. The colorimetric change of MTT according to a protein type treated to the cells and the light irradiation time was checked, and then cell viability was confirmed by measuring the absorbance intensity at 570 nm using a plate reader. […]

[3] = Bioluminescence assay of purified proteins with Co-h substrate (BRET); assay type: physicochemical; conditions: protein 1 μM, Co-h 50 μM, 1×PBS
Protocol: In addition, 100 μL of buffer (1×PBS) containing the protein purified in Example 1 (final concentration: 1 μM) was dispensed into a 96-well plate (SPL Cell Culture Plate, 96 well (SPL, Cat #30196)), and bioluminescence assay was then performed using 50 μL of buffer (1×PBS) containing a Co-h substrate solution (final concentration: 50 μM), which is a wild-type 2-deoxy derivative. Bioluminescence intensity was immediately measured at a wavelength of 300 to 800 nm using a Thermo Scientific™ Varioskan™ Flash Multimode Reader.

MDA-MB-435 = test: Cell death with Co-h substrate by cell type (SYTOX Green or EthD-1/DAPI); assay type: cell-based, human; conditions: MDA-MB-435, protein 10 μM, Co-h 150 μM for 5 minutes
Protocol: (§1) The cells were seeded at 5×10^5 cells/mL in 96-well plates (SPL Cell Culture Plate, 96 well (SPL, Cat #30096)), and cultured at 37° C. for 24 hours (overnight). After the culture for 24 hours, the cells were washed with FBS & phenol red-free media, and 100 μL of FBS & phenol red-free media containing a purified protein (final concentration: 10 μM) was added, followed by reaction at 37° C. for 24 hours.
(§2) Subsequently, the cells were washed with FBS & phenol red-free media, and 100 μL of FBS & phenol red-free media was added. 100 μL of FBS & Phenol red-free media (RPMI) containing a Co-h substrate solution (final concentration: 150 μM) was added, followed by reaction at 37° C. for 5 minutes.
(§3) After the reaction, 50 μL of SYTOX Green (final concentration: 261 nM) or 90 μL of ethidium homodimer (EthD-1) (final concentration 1×), which stains DNA of dead cells, was added, followed by reaction at 37° C. for 30 minutes. 10 μL of DAPI staining DNA of live cells was added, followed by reaction for 5 minutes. Cell death was confirmed by observing KillerRed, SYTOX Green, MiniSOG, EthD-1 and DAPI fluorescence using a confocal microscope.

MCF-7 = test: as above; assay type: cell-based, human; conditions: MCF-7, protein 10 μM, Co-h 150 μM for 5 minutes
Protocol: as §1, §2, §3

MCF-10A = test: as above; assay type: cell-based, human; conditions: protein 10 μM, Co-h 150 μM for 5 minutes
Protocol: as §1, §2, §3

MDA-MB-231 = test: as above; assay type: cell-based, human; conditions: MDA-MB-231, protein 10 μM, Co-h 150 μM for 5 minutes
Protocol: as §1, §2, §3

BT-474 = test: as above; assay type: cell-based, human; conditions: BT-474, protein 10 μM, Co-h 150 μM for 5 minutes
Protocol: as §1, §2, §3

SK-BR-3 = test: as above; assay type: cell-based, human; conditions: SK-BR-3, protein 10 μM, Co-h 150 μM for 5 minutes
Protocol: as §1, §2, §3

Substance	cell death by staining (SYTOX Green or EthD-1 dead cells, DAPI live cells) (MCF-7 cells [1])	cell viability / colorimetric change of MTT with reaction time with Co-h (MCF-7 cells [2])	emission in bioluminescence assay (BRET) [3] [nm]	cell death with Co-h substrate (MDA-MB-435)	cell death with Co-h substrate (MCF-7)	cell death with Co-h substrate (MCF-10A)	cell death with Co-h substrate (MDA-MB-231)	cell death with Co-h substrate (BT-474)	cell death with Co-h substrate (SK-BR-3)
MS: first protein MiniSOG, ROS-generating protein (singlet oxygen), expressed from pRSET-MiniSOG, 13 kDa [reference compound]	stained with DAPI	the staining becomes pink	500						
RLuc8-MS: fusion protein of RLuc8 and MiniSOG without lead peptide, 53 kDa	stained with DAPI	the staining becomes pink		none of the six breast cancer cell lines were killed	none of the six breast cancer cell lines were killed	none of the six breast cancer cell lines were killed	none of the six breast cancer cell lines were killed	none of the six breast cancer cell lines were killed	none of the six breast cancer cell lines were killed
